Source: US20240158392A1 (Janssen Biotech, Inc., priority 2021, published 2024)

Legend:
SIK2 [1] = target: T1, SIK2 (Homo sapiens, UniProt Q9H0K1); experiment: SIK2 Enzymatic Assay High Version 2 (High ATP); type: biochemical
Procedure, shortened: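 At room temperature, enzyme (6 nM, 2× final) was preincubated with compound for 30 min, then 6 mM ATP and 400 μM HDAC5tide (both 2× final) were added for 2 h. ADP formed was measured by ADP-Glo Max (2 h reagent, 1 h detection) using luminescence.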

SIK2 [2] = target: T1, SIK2; experiment: SIK2 Enzymatic Assay Version 1 (ADP Glo); type: biochemical; details: enzyme 0.6 nM, 160 μM ATP and 140 μM HDAC5tide (each 2× final concentration); 30 minutes pre-incubation, 4 hours; ADPGlo luminescence; read-out: SIK2 ADP Glo IC50 (μM) (Test Example 1)
Procedure, shortened: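 Room-temperature ADP-Glo luminescence assay; SIK2 added at 0.6 nM (2× final) and preincubated with compound for 30 min. Reaction stopped with ADP-Glo Reagent for 40 min, then detection reagent for at least 30 min; no-peptide (ATP-only) wells served as negative control.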

T1 sequence (Q9H0K1 whole entry, species assumed): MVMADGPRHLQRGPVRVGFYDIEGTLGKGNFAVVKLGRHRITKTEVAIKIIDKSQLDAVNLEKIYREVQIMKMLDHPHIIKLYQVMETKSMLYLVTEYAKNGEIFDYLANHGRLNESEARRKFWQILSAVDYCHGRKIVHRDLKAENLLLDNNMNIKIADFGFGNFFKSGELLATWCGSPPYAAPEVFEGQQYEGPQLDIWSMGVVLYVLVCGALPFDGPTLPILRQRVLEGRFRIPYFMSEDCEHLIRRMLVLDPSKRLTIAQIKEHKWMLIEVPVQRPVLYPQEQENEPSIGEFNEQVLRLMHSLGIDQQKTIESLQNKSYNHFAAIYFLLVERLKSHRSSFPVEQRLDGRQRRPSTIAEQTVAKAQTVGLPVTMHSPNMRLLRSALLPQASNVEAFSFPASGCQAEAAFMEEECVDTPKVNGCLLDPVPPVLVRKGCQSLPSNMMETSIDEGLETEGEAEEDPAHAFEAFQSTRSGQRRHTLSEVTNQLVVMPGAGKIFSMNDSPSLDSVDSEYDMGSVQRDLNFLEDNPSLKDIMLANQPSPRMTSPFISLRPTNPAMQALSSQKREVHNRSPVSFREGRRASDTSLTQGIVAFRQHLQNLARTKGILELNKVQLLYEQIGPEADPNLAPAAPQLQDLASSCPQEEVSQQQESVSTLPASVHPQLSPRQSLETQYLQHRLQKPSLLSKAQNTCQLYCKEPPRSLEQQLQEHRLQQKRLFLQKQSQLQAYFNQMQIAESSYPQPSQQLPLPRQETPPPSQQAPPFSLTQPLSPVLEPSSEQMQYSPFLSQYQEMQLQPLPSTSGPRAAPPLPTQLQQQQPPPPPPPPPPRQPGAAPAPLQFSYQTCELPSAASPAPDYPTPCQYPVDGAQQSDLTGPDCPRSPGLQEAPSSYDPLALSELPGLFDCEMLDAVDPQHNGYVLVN

Compound	IC50 (SIK2 [1])	IC50 (SIK2 [2])
CN1C[C@@H]2C[C@H]1C[C@H]2Oc1cnc(C#N)cc1-c1ccn2nc(NC(=O)C3CC3)cc2c1 (single isomer, unassigned) [Example 595, (1*S, 4*S, 5*R)—N-[5-[2-cyano-5-[(2-methyl-2-azabicyclo[2.2.1]heptan-5-yl)oxy]-4-pyridyl]pyrazolo[1,5-a]pyridin-2-yl]cyclopropanecarboxamide]	0.018 µM	0.000791 µM
N#Cc1cc(-c2ccn3nc(NC(=O)C4CC4)cc3c2)c(OCC2CCNC2)cn1 (stereo in doubt) [Example 45, N-[5-[2-Cyano-5-[[(3R)-pyrrolidin-3-yl]methoxy]-4-pyridyl]pyrazolo[1,5-a]pyridin-2-yl]cyclopropanecarboxamide]	0.0234 µM	0.00116 µM
Cc1cc(-c2ccn3nc(NC(=O)C4CC4)cc3c2)c(O[C@H]2CC[C@H](O)C2)cn1 (stereo in doubt) [Example 183, trans-N-(5-(5-(((1*S,3*S)-3-hydroxycyclopentyl)oxy)-2-methylpyridin-4-yl)pyrazolo[1,5-a]pyridin-2-yl)cyclopropanecarboxamide]	0.0349 µM	0.00201 µM
CN1CC[C@@H](COc2cnc(C#N)cc2-c2ccn3nc(NC(=O)C4CC4)cc3c2)C1 [Example 1, N-[5-[2-Cyano-5-[[(3R)-1-methylpyrrolidin-3-yl]methoxy]-4-pyridyl]pyrazolo[1,5-a]pyridin-2-yl]cyclopropanecarboxamide]	0.0591 µM	0.00226 µM
CN1CC[C@@H](COc2cnc(C#N)cc2-c2ccn3nc(Nc4cccnc4)cc3c2)C1 [Example 4, (R)-5-((1-methylpyrrolidin-3-yl)methoxy)-4-(2-(pyridin-3-ylamino)pyrazolo[1,5-a]pyridin-5-yl)picolinonitrile]	0.074 µM	0.0039 µM
N#Cc1cc(-c2ccn3nc(NC(=O)C4CC4)cc3c2)c(O[C@H]2CCN(CC(F)(F)F)C2)cn1 [Example 5, N-[5-[2-cyano-5-[(3S)-1-(2,2,2-trifluoroethyl)pyrrolidin-3-yl]oxy-4-pyridyl]pyrazolo[1,5-a]pyridin-2-yl]cyclopropanecarboxamide]	0.00774 µM	0.000381 µM
N#Cc1cc(-c2ccn3nc(NC(=O)C4CC4)cc3c2)c(O[C@H]2CCNC2)cn1 [Example 6, (S)—N-(5-(2-cyano-5-(pyrrolidin-3-yloxy)pyridin-4-yl)pyrazolo[1,5-a]pyridin-2-yl)cyclopropanecarboxamide]	0.0112 µM	0.00149 µM
N#Cc1cc(-c2ccn3nc(NC(=O)C4CC4)cc3c2)c(O[C@H]2CCN(C3CC3)C2)cn1 [Example 7, N-[5-[2-cyano-5-[(3S)-1-cyclopropylpyrrolidin-3-yl]oxy-4-pyridyl]pyrazolo[1,5-a]pyridin-2-yl]cyclopropanecarboxamide]	0.0299 µM	0.000725 µM
CN1CCC(Oc2cnc(C#N)cc2-c2ccn3nc(NC(=O)C4CC4)cc3c2)(C(F)(F)F)CC1 [Example 10, N-[5-[2-cyano-5-[[1-methyl-4-(trifluoromethyl)-4-piperidyl]oxy]-4-pyridyl]pyrazolo[1,5-a]pyridin-2-yl]cyclopropanecarboxamide]	4.87 µM	0.204 µM
CN1CC[C@@H](Oc2cnc(C#N)cc2-c2ccn3nc(NC(=O)C4CC4)cc3c2)C(F)(F)C1 [Example 11, N-[5-[2-cyano-5-[[(4R)-3,3-difluoro-1-methyl-4-piperidyl]oxy]-4-pyridyl]pyrazolo[1,5-a]pyridin-2-yl]cyclopropanecarboxamide]	0.0316 µM	0.0014 µM
CN1C[C@H]2C[C@@H]1C[C@H]2Oc1cnc(C#N)cc1-c1ccn2nc(NC(=O)C3CC3)cc2c1 [Example 13, N-[5-[2-cyano-5-[[(1R,4R,5R)-2-methyl-2-azabicyclo[2.2.1]heptan-5-yl]oxy]-4-pyridyl]pyrazolo[1,5-a]pyridin-2-yl]cyclopropanecarboxamide]	0.305 µM	0.0208 µM
N#Cc1cc(-c2ccn3nc(NC(=O)C4CC4)cc3c2)c(O[C@@H]2CCNCC2(F)F)cn1 [Example 15, N-[5-[2-cyano-5-[[(4R)-3,3-difluoro-4-piperidyl]oxy]-4-pyridyl]pyrazolo[1,5-a]pyridin-2-yl]cyclopropanecarboxamide]	0.0399 µM	0.0027 µM
CN1CC[C@H](COc2cnc(C#N)cc2-c2ccn3nc(NC(=O)C4CC4)cc3c2)C1 [Example 16, (S)—N-(5-(2-cyano-5-((1-methylpyrrolidin-3-yl)methoxy)pyridin-4-yl)pyrazolo[1,5-a]pyridin-2-yl)cyclopropanecarboxamide]	0.236 µM	0.00496 µM
N#Cc1cc(-c2ccn3nc(NC(=O)C4CC4)cc3c2)c(OC[C@@H]2CNCCO2)cn1 [Example 19, N-[5-[2-cyano-5-[[(2S)-morpholin-2-yl]methoxy]-4-pyridyl]pyrazolo[1,5-a]pyridin-2-yl]cyclopropanecarboxamide]	0.00838 µM	0.000783 µM
N#Cc1cc(-c2ccn3nc(NC(=O)C4CC4)cc3c2)c(OC[C@@H]2CC[C@H](N)C2)cn1 [Example 20, N-[5-[5-[[(1R,3S)-3-aminocyclopentyl]methoxy]-2-cyano-4-pyridyl]pyrazolo[1,5-a]pyridin-2-yl]cyclopropanecarboxamide]	0.0102 µM	0.00122 µM
N#Cc1cc(-c2ccn3nc(NC(=O)C4CC4)cc3c2)c(OCC2CNC2)cn1 [Example 23, N-[5-[5-(azetidin-3-ylmethoxy)-2-cyano-4-pyridyl]pyrazolo[1,5-a]pyridin-2-yl]cyclopropanecarboxamide]	0.0163 µM	0.0021 µM
N#Cc1cc(-c2ccn3nc(NC(=O)C4CC4)cc3c2)c(O[C@@H]2C[C@H]3C[C@@H]2CN3)cn1 [Example 24, N-[5-[5-[[(1R,4R,5R)-2-azabicyclo[2.2.1]heptan-5-yl]oxy]-2-cyano-4-pyridyl]pyrazolo[1,5-a]pyridin-2-yl]cyclopropanecarboxamide]	0.145 µM	0.00594 µM
CN1[C@@H]2CC[C@H]1C[C@H](COc1cnc(C#N)cc1-c1ccn3nc(NC(=O)C4CC4)cc3c1)C2 [Example 27, N-[5-[2-cyano-5-[[(1S,5R)-8-methyl-8-azabicyclo[3.2.1]octan-3-yl]methoxy]-4-pyridyl]pyrazolo[1,5-a]pyridin-2-yl]cyclopropanecarboxamide]	0.0987 µM	0.00474 µM
N#Cc1cc(-c2ccn3nc(NC(=O)C4CC4)cc3c2)c(OC2CNC2)cn1 [Example 31, N-[5-[5-(azetidin-3-yloxy)-2-cyano-4-pyridyl]pyrazolo[1,5-a]pyridin-2-yl]cyclopropanecarboxamide]	0.111 µM	0.00705 µM
CN1CC(COc2cnc(C#N)cc2-c2ccn3nc(NC(=O)C4CC4)cc3c2)C1 [Example 32, N-[5-[2-cyano-5-[(1-methylazetidin-3-yl)methoxy]-4-pyridyl]pyrazolo[1,5-a]pyridin-2-yl]cyclopropanecarboxamide]	0.0813 µM	0.0034 µM
CN1CCO[C@@H](COc2cnc(C#N)cc2-c2ccn3nc(NC(=O)C4CC4)cc3c2)C1 [Example 36, (R)—N-(5-(2-cyano-5-((4-methylmorpholin-2-yl)methoxy)pyridin-4-yl)pyrazolo[1,5-a]pyridin-2-yl)cyclopropanecarboxamide]	0.0201 µM	0.00321 µM
CN1CCC[C@@H](COc2cnc(C#N)cc2-c2ccn3nc(NC(=O)C4CC4)cc3c2)C1 [Example 37, (R)—N-(5-(2-cyano-5-((1-methylpiperidin-3-yl)methoxy)pyridin-4-yl)pyrazolo[1,5-a]pyridin-2-yl)cyclopropanecarboxamide]	0.111 µM	0.00725 µM
CN1CCC[C@H](COc2cnc(C#N)cc2-c2ccn3nc(NC(=O)C4CC4)cc3c2)C1 [Example 38, (S)—N-(5-(2-cyano-5-((1-methylpiperidin-3-yl)methoxy)pyridin-4-yl)pyrazolo[1,5-a]pyridin-2-yl)cyclopropanecarboxamide]	0.305 µM	0.014 µM
CN1CCO[C@H](COc2cnc(C#N)cc2-c2ccn3nc(NC(=O)C4CC4)cc3c2)C1 [Example 39, N-[5-[2-cyano-5-[[(2S)-4-methylmorpholin-2-yl]methoxy]-4-pyridyl]pyrazolo[1,5-a]pyridin-2-yl]cyclopropanecarboxamide]	0.036 µM	0.00152 µM
N#Cc1cc(-c2ccn3nc(NC(=O)C4CC4)cc3c2)c(OCC23CCC(CC2)C(=O)N3)cn1 [Example 40, N-[5-[2-cyano-5-[(2-oxo-3-azabicyclo[2.2.2]octan-4-yl)methoxy]-4-pyridyl]pyrazolo[1,5-a]pyridin-2-yl]cyclopropanecarboxamide]	0.0876 µM	0.0047 µM
N#Cc1cc(-c2ccn3nc(NC(=O)C4CC4)cc3c2)c(OCC2(O)CCC2)cn1 [Example 41, N-[5-[2-cyano-5-[(1-hydroxycyclobutyl)methoxy]-4-pyridyl]pyrazolo[1,5-a]pyridin-2-yl]cyclopropanecarboxamide]	0.0585 µM	0.00243 µM
N#Cc1cc(-c2ccn3nc(NC(=O)C4CC4)cc3c2)c(OCC2(O)CCCC2)cn1 [Example 42, N-[5-[2-cyano-5-[(1-hydroxycyclopentyl)methoxy]-4-pyridyl]pyrazolo[1,5-a]pyridin-2-yl]cyclopropanecarboxamide]	0.0455 µM	0.00169 µM
N#Cc1cc(-c2ccn3nc(NC(=O)C4CC4)cc3c2)c(OCC2CCNCC2)cn1 [Example 43, N-[5-[2-cyano-5-(4-piperidylmethoxy)-4-pyridyl]pyrazolo[1,5-a]pyridin-2-yl]cyclopropanecarboxamide]	0.0108 µM	0.000938 µM
